# Where a name gives a salt, the structure may show the parent alone.
# How the values were obtained:
# Wistar rats = assay: Acetic Acid-Induced Writhing in Rats Test; type: in vivo; settings: Rattus norvegicus, ip, 0.5 ml 1% acetic acid i.p., compound given 15 min after acetic acid, writhes counted 60-75 min after acetic acid, dose reducing to less than 16 writhes in 50% of the animals, read-out: Writhing in Rats Test ED50 in mg/kg body weight
# Experimental: The Acetic Acid-Induced Writhing in Rats Test is known to be a useful tool for the evaluation of the analgesic properties of given test compound (see in connection herewith Drug Research, 25, 1505-1509 (1975)).
# Wistar rats weighing about 100g were used throughout. They were injected i.p. with 0.5 ml of a 1% aqueous solution of acetic acid and placed in individual glass containers for observation. […] 5 Min. later (15 min. after the acetic acid treatment) the test compound was administered. […] The lowest effective dose in 50% of the test animals (ED₅₀) was determined as that dose in mg/kg body weight capable of reducing the number of writhes during the 15 minutes observation period to less than 16 writhes in 50% of the tested animals.
# Said ED₅₀ values for a number of compounds having the formula (I) and the pharmaceutically acceptable acid-addition salts thereof are gathered in Table 1.
# Male Wistar rats = assay: Tail Withdrawal Test; type: in vivo; settings: Rattus norvegicus, iv, tail immersed in water at 55°C, dose suppressing the tail withdrawal response for more than 10 seconds in 50% of the animals, read-out: Tail Witdrawal Test ED50 in mg/kg body weight
# Experimental: Male Wistar rats weighing 200g ± 5g were fasted overnight, water being available at libitum. Aqueous solutions, made isotonic with sodium chloride, of the test compounds at various concentrations were administered to the test animals intraveneously (i.v.). The thus treated rats were put into individual restraining cages. At various time periods after administration, the lower 5 cm portion of the tail was immersed into a cup filled with water at a constant temperature of 55°C. The typical tail withdrawal response was evaluated during a 10 sec. period after the immersion. ED₅₀ values in mg/kg body weight were determined as that dose of the test compound capable of suppressing in 50% of the tested animals the typical tail withdrawal response during a time period exceeding 10 seconds. Said ED₅₀ values for a number of compounds having the formula (I) and the pharma- ceutically acceptable acid-addition salts thereof are gathered in Table 1.
Structure (SMILES),ED50 (Wistar rats) [mg/kg],ED50 (Male Wistar rats) [mg/kg]
COc1ccc(/C=C/CN2CCN(c3cccnn3)CC2)cc1 [compound 18],40,
C(=C\c1ccccc1)/CN1CCN(c2cccnn2)CC1 [compound 8],2.5,
"Clc1ccc(N2CCN(C/C=C/c3ccccc3)CC2)nn1 [compound 1, (E)-3-chloro-6-[4-(3-phenyl-2-propenyl)-1-piperazinyl]pyridazine]",5,20
Fc1ccc(/C=C/CN2CCN(c3cccnn3)CC2)cc1 [compound 11],40,
"Brc1ccc(N2CCN(C/C=C/c3ccccc3)CC2)nn1 [compound 3, (E)-3-bromo-6-[4-(3-phenyl-2-propenyl)-1-piperazinyl]pyridazine]",10,
"[O-][N+]1(C/C=C/c2ccccc2)CCN(c2ccc(Cl)nn2)CC1 [compound 38, (E)-3-chloro-6-[4-(3-phenyl-2-propenyl)-1-piperazinyl]pyridazine, 4-oxide]",10,≥ 20
Clc1ccc(N2CCCN(C/C=C/c3ccccc3)CC2)nn1 [compound 7],20,40
"Clc1ccc(/C=C/CN2CCN(c3ccc(Cl)nn3)CC2)cc1 [compound 5, (E)-3-chloro-6-[4-[3-(4-chlorophenyl)-2-propenyl]-1-piperazinyl]pyridazine]",40,
C(=C\c1ccccc1)/CN1CCCN(c2ccc(-c3ccccc3)nn2)CC1 [compound 19],10,
COc1ccc(/C=C/CN2CCN(c3ccc(Cl)nn3)CC2)cc1 [compound 14],40,
Fc1ccc(/C=C/CN2CCN(c3ccc(Cl)nn3)CC2)cc1 [compound 10],20,
"Cl.Cl.Clc1ccc(N2CCN(C/C=C/c3ccccc3)CC2)nn1 [compound 37, (E)-3-chloro-6-[4-(3-phenyl-2-propenyl)-1-piperazinyl]pyridazine dihydrochloride]",10,< 40
Cc1ccc(/C=C/CN2CCN(c3ccc(Cl)nn3)CC2)cc1 [compound 13],40,
COc1ccc(N2CCN(C/C=C/c3ccc(F)cc3)CC2)nn1 [compound 9],10,
"CC1CN(C/C=C/c2ccccc2)CCN1c1ccc(Cl)nn1 (centres unmarked) [compound 2, (E)-3-chloro-6-[2-methyl-4-(3-phenyl-2-propenyl)-1-piperazinyl]pyridazine monohydrochloride.hemihydrate]",5,10
Clc1ccc(N2CCN(C/C=C/c3cccs3)CC2)nn1 [compound 12],10,
"COc1ccc(N2CCN(C/C=C/c3ccccc3)CC2)nn1 [compound 4, (E)-3-methoxy-6-[4-(3-phenyl-2-propenyl)-1-piperazinyl]pyridazine]",5,40

# — EP0211457A2, “Novel (4-substituted-piperazinyl)pyridazines” (JANSSEN PHARMACEUTICA N.V., priority 1985, dated 1987)
